Tests used:
oral cavity = test: Expert panel evaluation in foods, beverages and consumer healthcare products; assay type: in vivo, human; conditions: for character of mayonnaise base / character of sour cream / character of vegetable dip: 500 ppm compound; for character of toothpaste base: peppermint flavored toothpaste base; for character of sour cream: regular fat sour cream; for character of vegetable dip: vegetable soup mix with regular fat sour cream
Method: Mouthwash base was prepared by mixing 0.08 parts mouthwash flavor (commercially available from Givaudan Roure Flavors Ltd.), 0.5 parts Pluronic F-127, 0.5 parts polysorbate 20, 0.35 parts sodium lauryl sulfate, 5 parts glycerine, 0.015 parts sodium saccharin and 93.555 parts water. […] Toothpaste base (Opaque 13/02-5F) was flavored with peppermint flavor (Givaudan Roure peppermint flavor 10570-34) at 0.5% by weight. […] Mayonnaise base was prepared by mixing 59.8 parts whole egg, 24 parts vinegar (white, 5% acidity), 1.3 parts mustard, 2 parts sugar, 1 part salt and 219 parts vegetable oil. […] An onion dip was prepared by mixing a commercial package of onion soup mix (Lipton) with plain, regular fat sour cream and 1000 ppm of compound 9 as described and prepared according to example 9. […] 2.5 parts Maltrin M-10 (commercially available) was mixed with 0.05 parts pizza flavor (SNE Pizza Flavor 810841). 50 parts potato chips ([…]) were placed on a paper plate then microwaved for 30-60 seconds until surface oil glistened. […] A chewing gum was prepared according to methods known to those skilled in the art.

tumor = conditions: H. Itokawa et al., Planta Medica (1987); cited from earlier work
xanthin oxidase = conditions: T. Noro et al., Chem. Pharm. Bull. (1988); cited from earlier work
fungi = conditions: A. M. Janssen et al., Planta Medica 1985; cited from earlier work
[1] = S. Mitsui et al., Chem. Pharm. Bull. (1976); cited from earlier work
Epstein-Barr virus = conditions: A. Kondo et al., Biosci. Biotech. Biochem. (1993); cited from earlier work

SMILES	character of mayonnaise base (oral cavity)	sensation imparted by mouthwash base (oral cavity; 100 ppm compound)	character of toothpaste base (oral cavity; 100 ppm compound)	character of sour cream (oral cavity)	character of vegetable dip (oral cavity)	other results
C=CC(OC(C)=O)c1ccc(OC(C)=O)cc1 (racemic) [Compound 1, (rac)-acetic acid 1-(4-acetoxy-phenyl)-allyl ester]	warm/hot, spicy and pungent character	warm/hot, spicy and pungent sensation	warm/hot, spicy and pungent character	warm/hot, spicy and pungent character without a lingering effect	warm/hot, peppery and pungent character without any lingering effect	anti-tumor activity (tumor): anti-tumor activity; inhibition of xanthin oxidase (xanthin oxidase): inhibit xanthin oxidase; anti-fungal activity (fungi): anti-fungal activity; anti-ulcer activity [1]: anti-ulcer activity; inhibition of tumor promoter-induced Epstein-Barr virus activation (Epstein-Barr virus): potent inhibitor
C=CC(OC(C)=O)c1ccc(OC(C)=O)c(OC)c1 (racemic) [Compound 2, (rac)-acetic acid 1-(4-acetoxy-3-methoxphenyl)-allyl ester]	–	–	–	–	–	character of orange flavored chewing gum (oral cavity; chewing gum, 1 g compound in the batch): warm/hot, peppery and pungent character, again without any lingering effect; anti-tumor activity (tumor): anti-tumor activity; inhibition of xanthin oxidase (xanthin oxidase): inhibit xanthin oxidase; anti-fungal activity (fungi): anti-fungal activity
C=CC(OC(=O)CC)c1ccc(OC(=O)CC)c(OC)c1 (racemic) [Compound 3, (rac)-propionic acid 1-(4-propionoxy-3-methoxyphenyl)-allyl ester]	–	warm/hot, spicy and pungent sensation	–	–	–	–
C=CC(OC(=O)CC)c1ccc(OC(=O)CC)cc1 (racemic) [Compound 4, (rac)-propionic acid 1-(4-propionoxy-phenyl)-allyl ester]	–	warm/hot, spicy and pungent sensation	–	–	–	–
C=CC(OC(=O)C(C)C)c1ccc(OC(=O)C(C)C)cc1 (racemic) [Compound 5, (rac)-isobutyric acid 1-(4-isobutyryloxy-phenyl)-allyl ester]	–	warm/hot, spicy and pungent sensation	–	–	–	–
CCC(OC(C)=O)c1ccc(OC(C)=O)cc1 (racemic) [Compound 6, (rac-)-acetic acid 1-(4-acetoxy-phenyl)-propyl ester]	warm/hot, spicy and pungent character	warm/hot, spicy and pungent sensation	warm/hot, spicy and pungent character	warm/hot, spicy and pungent character without a lingering effect	warm/hot, peppery and pungent character without any lingering effect	character of pizza snack (potato chips) (oral cavity; potato chips with pizza flavor, dusted with 1000 ppm compound): warm/hot, peppery and pungent character
CCC(OC(C)=O)c1ccc(OC(C)=O)c(OC)c1 (racemic) [Compound 7, (rac)-acetic acid 1-(4-acetoxy-3-methoxy-phenyl)-propyl ester]	warm/hot, spicy and pungent character	warm/hot, spicy and pungent sensation	warm/hot, spicy and pungent character	warm/hot, spicy and pungent character without a lingering effect	warm/hot, peppery and pungent character without any lingering effect	flavor of cordial base (oral cavity; 50 Proof cordial base with cinnamon flavor 0.2% by weight, 100 ppm compound): enhanced warm /hot, pungent flavor
C=CCC(OC(C)=O)c1ccc(OC(C)=O)cc1 (racemic) [Compound 9, (rac)-acetic acid 1-(4-acetoxyphenyl)-3-butenyl ester]	warm/hot, spicy and pungent character	warm/hot, spicy and pungent sensation	warm/hot, spicy and pungent character	warm/hot, spicy and pungent character without a lingering effect	warm/hot, peppery and pungent character without any lingering effect	character of onion dip (oral cavity; onion soup mix with regular fat sour cream, 1000 ppm compound): warm/hot, peppery and pungent character without a lingering effect

Reference: patent US6476252B1, “Flavorant compositions” (Givaudan Roure (International) SA, priority 1997, dated 2002)
